Experimental data taken from patent publication US6525094B1, “Method of treating hair loss using diphenylether derivatives” (The University of Texas Southwestern Medical Center, priority 1999, dated 2003).

Test system: male Sprague Dawley rats
Experiment: Cardiotoxicity Assay (heart-to-body weight ratio)
Type: in vivo, rat
Details: 250 μg of test compound per kg subcutaneously once daily for 28 days, hearts weighed on day 30
Description: The cardiotoxicity assay measures the potential of a test compound to adversely affect the cardiovascular system. As thyroid hormone (T3) damages the cardiovascular system, the heart enlarges. See, e.g., Gomberg-Maitland et al., “Thyroid hormone and Cardiovascular Disease”, American Heart Journal, Vol. 135(2), pp. 187-196 (1998); Klein and Ojamaa, “Thyroid Hormone and the Cardiovascular System”, Current Opinion in Endocrinology and Diabetes, Vol. 4, pp.341-346 (1997); and Klemperer et al., “Thyroid Hormone Therapy and Cardiovascular Disease”, Progress in Cardiovascular Diseases, Vol. 37 (4), pp. 329-336 (1996). This increases the weight of the heart relative to whole body weight. The cardiotoxicity assay herein below is used to test compounds for potentially adverse cardiac effects by measuring their effect on the heart-to-body weight ratio.
Two groups each of six male Sprague Dawley rats (Harlan Sprague Dawley, Inc., Indianapolis, Ind.) (each weighing from approximately 220 grams to 235 grams) are utilized. The first group is a vehicle control group and the second group is a test compound group. The length of the assay is 30 days, with treatment of vehicle or test compound in vehicle daily for 28 of those days as described below.
Prior to initiation of the assay, each rat is allowed to acclimate to standard environmental conditions for 5 days. […]

| SMILES | cardiac-sparing (index C = RT/RV, heart/body weight ratio of test compound group divided by that of vehicle control group; C less than 1.3 = cardiac-sparing) |
| --- | --- |
| N[C@@H](Cc1cc(I)c(Oc2ccc(O)c(I)c2)c(I)c1)C(=O)O [Example T3, thyronine] | not cardiac-sparing |
| N[C@@H](Cc1cc(I)c(Oc2cc(I)c(O)c(I)c2)c(I)c1)C(=O)O [Example T4, thyroxine] | not cardiac-sparing |
